pIC50: −log10 of the molar value. ≈ marks a conversion by molar mass, not a printed value.
Experiments:
[1] = target: T1, Integrin alpha-V/beta-3 (Homo sapiens, UniProt P05106+P06756); assay: Inhibition of integrin alphavbeta3 (unknown origin) by fluorescence polarization assay
[2] = target: T2, Integrin alpha-V/beta-5 (Homo sapiens, UniProt P06756+P18084); assay: Inhibition of integrin alphavbeta5 (unknown origin) by fluorescence polarization assay
[3] = species on record: Homo sapiens; assay: Selectivity ratio of IC50 for inhibition of integrin alphavbeta3 (unknown origin) to IC50 for inhibition of integrin alphavbeta5 (unknown origin)
[4] = target: Integrin alpha-V/beta-6 (Homo sapiens, UniProt P06756+P18564); assay: Inhibition of integrin alphavbeta6 (unknown origin) by fluorescence polarization assay; type: protein-complex assay
[5] = target: Integrin alpha-V/beta-8 (Homo sapiens, UniProt P06756+P26012); assay: Inhibition of integrin alphavbeta8 (unknown origin) by fluorescence polarization assay; type: protein-complex assay
[6] = target: Integrin alpha-V/beta-1 (Homo sapiens, UniProt P05556+P06756); assay: Inhibition of integrin alphavbeta1 (unknown origin) by fluorescence polarization assay; type: protein-complex assay
[7] = Clearance in rat microsomes assessed per gram tissue; type: ADME, Microsome
[8] = Clearance in human microsomes based well stirred model; type: ADME, Microsome
[9] = Clearance in human hepatocytes assessed per gram tissue; type: ADME, cell-based, Hepatocyte
[10] = Passive permeability of compound in MDCK cells; type: ADME, cell-based, Canis lupus familiaris; conditions: dog, read-out: permeability
[11] = Clearance in rat microsomes based well stirred model; type: ADME, Microsome
[12] = target: T1, Integrin alpha-V/beta-3; assay: Inhibition of human alphavbeta3 integrin stably expressed in human K562 cells assessed as inhibition of cell adhesion to GST-LAP1 incubated for 30 mins by BCECF-AM staining based fluorescence assay
[13] = Clearance in rat hepatocytes assessed per gram tissue; type: ADME, cell-based, Hepatocyte
[14] = Clearance in rat hepatocytes based well stirred model; type: ADME, cell-based, Hepatocyte
[15] = target: T2, Integrin alpha-V/beta-5; assay: Inhibition of human alphavbeta5 integrin stably expressed in human K562 cells assessed as inhibition of cell adhesion to vitronectin incubated for 30 mins by BCECF-AM staining based fluorescence assay
[16] = Clearance in human microsomes assessed per gram tissue; type: ADME, Microsome
[17] = Clearance in human hepatocytes based well stirred model; type: ADME, cell-based, Hepatocyte
[18] = Lipophilicity, log D of compound by chromatographic method; type: physicochemical
[19] = Solubility of the compound by CAD method; type: physicochemical

T2 sequence (P06756 31-889 limits assumed): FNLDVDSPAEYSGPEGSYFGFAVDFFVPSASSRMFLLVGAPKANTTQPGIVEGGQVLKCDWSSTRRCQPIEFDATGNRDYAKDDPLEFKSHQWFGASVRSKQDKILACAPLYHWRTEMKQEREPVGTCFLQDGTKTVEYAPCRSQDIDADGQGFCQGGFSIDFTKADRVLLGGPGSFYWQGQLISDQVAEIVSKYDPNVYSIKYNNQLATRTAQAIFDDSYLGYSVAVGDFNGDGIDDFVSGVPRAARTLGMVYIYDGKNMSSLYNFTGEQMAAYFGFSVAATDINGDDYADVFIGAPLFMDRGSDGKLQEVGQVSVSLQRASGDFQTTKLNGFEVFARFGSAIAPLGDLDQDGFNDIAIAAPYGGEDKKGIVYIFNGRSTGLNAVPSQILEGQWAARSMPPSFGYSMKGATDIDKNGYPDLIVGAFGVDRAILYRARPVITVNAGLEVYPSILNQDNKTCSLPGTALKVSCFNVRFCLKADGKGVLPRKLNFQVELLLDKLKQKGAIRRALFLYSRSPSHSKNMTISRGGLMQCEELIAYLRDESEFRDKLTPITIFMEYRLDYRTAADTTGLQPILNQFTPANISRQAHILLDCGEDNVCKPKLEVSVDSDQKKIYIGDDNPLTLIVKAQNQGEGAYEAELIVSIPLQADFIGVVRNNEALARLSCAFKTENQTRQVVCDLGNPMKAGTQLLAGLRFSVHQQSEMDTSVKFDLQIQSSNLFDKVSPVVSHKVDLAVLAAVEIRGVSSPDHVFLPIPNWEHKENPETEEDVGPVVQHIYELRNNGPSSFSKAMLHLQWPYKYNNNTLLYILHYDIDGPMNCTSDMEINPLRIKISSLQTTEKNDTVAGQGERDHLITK
T2 sequence (P06756 891-1048 limits assumed): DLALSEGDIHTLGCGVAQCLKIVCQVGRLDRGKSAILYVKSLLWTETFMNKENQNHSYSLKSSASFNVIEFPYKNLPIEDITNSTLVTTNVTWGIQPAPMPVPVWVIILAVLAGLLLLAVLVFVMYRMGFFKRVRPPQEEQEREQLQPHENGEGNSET
T2 sequence (P18084 24-799 limits assumed): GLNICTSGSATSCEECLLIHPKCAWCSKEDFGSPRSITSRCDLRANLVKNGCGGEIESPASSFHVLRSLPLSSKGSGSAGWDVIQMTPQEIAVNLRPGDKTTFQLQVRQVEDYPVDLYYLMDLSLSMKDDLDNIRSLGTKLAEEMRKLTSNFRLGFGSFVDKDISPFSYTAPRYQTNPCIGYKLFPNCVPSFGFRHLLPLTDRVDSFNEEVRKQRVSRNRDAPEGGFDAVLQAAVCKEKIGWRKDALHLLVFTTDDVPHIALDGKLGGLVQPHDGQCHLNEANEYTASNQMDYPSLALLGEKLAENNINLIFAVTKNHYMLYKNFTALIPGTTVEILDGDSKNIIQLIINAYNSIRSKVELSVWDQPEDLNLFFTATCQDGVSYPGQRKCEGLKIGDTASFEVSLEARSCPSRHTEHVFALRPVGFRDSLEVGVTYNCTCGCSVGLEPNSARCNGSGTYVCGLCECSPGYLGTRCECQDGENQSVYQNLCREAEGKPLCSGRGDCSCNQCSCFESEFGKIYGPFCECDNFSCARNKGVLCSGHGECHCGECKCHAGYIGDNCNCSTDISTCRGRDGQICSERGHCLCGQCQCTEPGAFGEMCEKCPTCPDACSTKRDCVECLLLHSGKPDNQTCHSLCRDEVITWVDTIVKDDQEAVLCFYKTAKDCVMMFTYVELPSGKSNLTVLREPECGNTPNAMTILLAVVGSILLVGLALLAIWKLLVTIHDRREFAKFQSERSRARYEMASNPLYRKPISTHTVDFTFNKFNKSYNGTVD
T1 sequence (P05106 27-788 limits assumed): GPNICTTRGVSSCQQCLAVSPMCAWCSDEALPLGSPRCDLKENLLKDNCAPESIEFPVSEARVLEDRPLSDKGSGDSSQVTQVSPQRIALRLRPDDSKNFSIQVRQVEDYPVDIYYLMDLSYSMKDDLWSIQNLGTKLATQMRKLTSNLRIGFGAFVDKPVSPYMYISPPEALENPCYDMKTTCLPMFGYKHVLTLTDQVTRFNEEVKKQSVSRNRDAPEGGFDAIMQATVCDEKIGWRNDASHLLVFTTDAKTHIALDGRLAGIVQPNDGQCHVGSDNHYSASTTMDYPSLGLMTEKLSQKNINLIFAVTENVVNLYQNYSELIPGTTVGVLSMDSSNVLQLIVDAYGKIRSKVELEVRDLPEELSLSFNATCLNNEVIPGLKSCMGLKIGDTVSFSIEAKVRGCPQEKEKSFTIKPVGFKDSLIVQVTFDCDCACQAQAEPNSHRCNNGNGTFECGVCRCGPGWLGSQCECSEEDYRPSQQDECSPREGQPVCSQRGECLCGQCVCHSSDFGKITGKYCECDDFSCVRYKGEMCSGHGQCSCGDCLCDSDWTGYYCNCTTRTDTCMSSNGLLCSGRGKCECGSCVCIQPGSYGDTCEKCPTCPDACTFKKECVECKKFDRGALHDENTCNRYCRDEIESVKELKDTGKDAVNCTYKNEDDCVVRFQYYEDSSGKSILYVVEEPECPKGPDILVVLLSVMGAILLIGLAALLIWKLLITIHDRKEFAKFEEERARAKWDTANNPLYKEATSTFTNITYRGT
T1 sequence (P06756 31-889 limits assumed): as the sequence (P06756 31-889 limits assumed) above
T1 sequence (P06756 891-1048 limits assumed): as the sequence (P06756 891-1048 limits assumed) above
Integrin alpha-V/beta-8, sequence (P06756 31-889 limits assumed): as the sequence (P06756 31-889 limits assumed) above
Integrin alpha-V/beta-8, sequence (P06756 891-1048 limits assumed): as the sequence (P06756 891-1048 limits assumed) above
Integrin alpha-V/beta-8, sequence (P26012 43-769 limits assumed): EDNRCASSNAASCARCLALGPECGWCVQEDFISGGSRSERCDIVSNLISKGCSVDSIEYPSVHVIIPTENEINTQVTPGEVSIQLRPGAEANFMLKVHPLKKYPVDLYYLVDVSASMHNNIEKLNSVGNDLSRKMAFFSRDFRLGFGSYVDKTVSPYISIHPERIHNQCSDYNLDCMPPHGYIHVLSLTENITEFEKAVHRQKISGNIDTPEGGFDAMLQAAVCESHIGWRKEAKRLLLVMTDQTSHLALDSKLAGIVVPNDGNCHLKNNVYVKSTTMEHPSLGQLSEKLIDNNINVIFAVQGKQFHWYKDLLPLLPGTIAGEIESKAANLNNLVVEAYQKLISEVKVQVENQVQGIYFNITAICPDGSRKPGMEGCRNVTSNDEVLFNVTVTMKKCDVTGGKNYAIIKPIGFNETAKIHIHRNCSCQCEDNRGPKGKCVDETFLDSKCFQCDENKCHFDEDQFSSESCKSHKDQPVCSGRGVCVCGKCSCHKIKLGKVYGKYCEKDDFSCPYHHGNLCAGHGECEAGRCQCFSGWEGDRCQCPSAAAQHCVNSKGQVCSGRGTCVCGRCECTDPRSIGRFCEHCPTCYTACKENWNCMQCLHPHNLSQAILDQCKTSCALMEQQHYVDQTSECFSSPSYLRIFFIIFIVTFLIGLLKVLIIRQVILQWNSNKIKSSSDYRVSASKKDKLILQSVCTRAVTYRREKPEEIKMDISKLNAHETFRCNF
Integrin alpha-V/beta-6, sequence (P06756 31-889 limits assumed): as the sequence (P06756 31-889 limits assumed) above
Integrin alpha-V/beta-6, sequence (P06756 891-1048 limits assumed): as the sequence (P06756 891-1048 limits assumed) above
Integrin alpha-V/beta-6, sequence (P18564 22-788 limits assumed): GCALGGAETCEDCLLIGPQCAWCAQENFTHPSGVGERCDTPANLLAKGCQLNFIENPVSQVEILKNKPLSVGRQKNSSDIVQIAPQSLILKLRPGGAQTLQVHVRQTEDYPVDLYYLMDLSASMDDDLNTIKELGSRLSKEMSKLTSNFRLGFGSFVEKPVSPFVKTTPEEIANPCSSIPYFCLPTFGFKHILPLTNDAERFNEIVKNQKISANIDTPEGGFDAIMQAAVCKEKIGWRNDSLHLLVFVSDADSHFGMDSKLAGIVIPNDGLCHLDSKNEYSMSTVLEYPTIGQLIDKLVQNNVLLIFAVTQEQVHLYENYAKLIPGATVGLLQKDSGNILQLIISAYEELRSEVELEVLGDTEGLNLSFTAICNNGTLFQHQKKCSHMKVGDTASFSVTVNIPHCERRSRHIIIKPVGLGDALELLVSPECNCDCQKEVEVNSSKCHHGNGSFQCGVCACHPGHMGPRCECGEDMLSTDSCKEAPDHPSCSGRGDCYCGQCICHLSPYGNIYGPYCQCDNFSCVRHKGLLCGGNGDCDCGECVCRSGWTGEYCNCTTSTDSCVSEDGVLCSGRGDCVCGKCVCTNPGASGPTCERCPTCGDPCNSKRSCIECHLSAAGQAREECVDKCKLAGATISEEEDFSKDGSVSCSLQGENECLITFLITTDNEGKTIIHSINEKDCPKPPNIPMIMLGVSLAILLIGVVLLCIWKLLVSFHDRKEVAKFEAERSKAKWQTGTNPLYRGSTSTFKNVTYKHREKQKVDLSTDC

| SMILES | pIC50 [1] | pIC50 [2] | Ratio IC50 [3] | other results |
| --- | --- | --- | --- | --- |
| Cc1ccc([C@H](CC(=O)O)C(=O)N2CC[C@@H](CCc3ccc4c(n3)NCCC4)C2)s1 | 6.80 | 8.20 | 25 | – |
| O=C(O)C[C@H](C(=O)N1CC[C@@H](CCc2ccc3c(n2)NCCC3)C1)c1cc(Br)cc(Br)c1 | 5.80 | 8.30 | 320 | – |
| O=C(O)C[C@H](C(=O)N1CC[C@@H](CCc2ccc3c(n2)NCCC3)C1)c1ccccc1 | 6.00 | 8.40 | 250 | pIC50 [4]: < 4.10; pIC50 [5]: < 4.10; pIC50 [6]: 5.40 |
| Cc1cccc([C@H](CC(=O)O)C(=O)N2CC[C@@H](CCc3ccc4c(n3)NCCC4)C2)c1 | 5.80 | 8.40 | 400 | clearance [7]: < 0.46 mL/min/g; clearance [8]: < 6 mL/min/kg; CLH [9]: < 0.45 mL/min/g; Papp [10]: 17.6 ×10⁻⁶ cm/s; clearance [11]: < 14 mL/min/kg; pIC50 [12]: 5.20; CLH [13]: 3.2 mL/min/g; CLH [14]: 46 mL/min/kg; pIC50 [15]: 7.10; clearance [16]: < 0.4 mL/min/g; CLH [17]: < 7 mL/min/kg; chromatographic logD [18]: 4.16; solubility [19]: 142 µg/mL (≈ 337 µM) |
| O=C(O)C[C@H](C(=O)N1CC[C@@H](CCc2ccc3c(n2)NCCC3)C1)c1cccc(-c2ccccc2)c1 | 5.70 | 8.20 | 320 | – |
| O=C(O)C[C@H](C(=O)N1CC[C@@H](CCc2ccc3c(n2)NCCC3)C1)c1ccccc1Br | 4.90 | 5.90 | 10 | – |
| CN(CCCCc1ccc2c(n1)NCCC2)C(=O)[C@@H](CC(=O)O)c1ccccc1 | 5.30 | 6.70 | 25 | – |
| O=C(O)C[C@H](C(=O)N1CC[C@@H](CCc2ccc3c(n2)NCCC3)C1)c1ccc(Br)cc1 | 5.90 | 8.20 | 200 | – |
| Cc1cc(C)cc([C@H](CC(=O)O)C(=O)N2CC[C@@H](CCc3ccc4c(n3)NCCC4)C2)c1 | 5.40 | 8.00 | 400 | pIC50 [12]: < 5.00; pIC50 [15]: 6.30 |
| O=C(O)CCn1ccc2cc(OCCCNc3ccccn3)ccc21 | 6.60 | 7.40 | 6 | – |
| O=C(O)C[C@H](C(=O)N1CC[C@@H](CCc2ccc3c(n2)NCCC3)C1)c1cccs1 | 6.10 | 8.30 | 160 | – |
| O=C(O)C[C@H](C(=O)N1CC[C@@H](CCc2ccc3c(n2)NCCC3)C1)c1cccc(N2CCOCC2)c1 | 5.70 | 7.90 | 160 | – |
| N#Cc1cccc([C@H](CC(=O)O)C(=O)N2CC[C@@H](CCc3ccc4c(n3)NCCC4)C2)c1 | 6.30 | 8.50 | 160 | clearance [7]: < 0.46 mL/min/g; clearance [8]: < 6 mL/min/kg; CLH [9]: < 0.45 mL/min/g; Papp [10]: 5.7 ×10⁻⁶ cm/s; clearance [11]: < 14 mL/min/kg; CLH [13]: 1.4 mL/min/g; CLH [14]: 30 mL/min/kg; clearance [16]: < 0.4 mL/min/g; CLH [17]: < 7 mL/min/kg; chromatographic logD [18]: 3.69; solubility [19]: 192 µg/mL (≈ 444 µM) |
| O=C(O)C[C@@H](C(=O)N1CC[C@@H](CCc2ccc3c(n2)NCCC3)C1)c1cccc(Br)c1 | 5.00 | 5.70 | 5 | – |
| O=C(O)C[C@H](C(=O)N1CC[C@@H](CCc2ccc3c(n2)NCCC3)C1)c1cccc(C(F)(F)F)c1 | 5.30 | – | 800 | clearance [7]: < 0.46 mL/min/g; clearance [8]: < 6 mL/min/kg; CLH [9]: < 0.45 mL/min/g; Papp [10]: 29.5 ×10⁻⁶ cm/s; clearance [11]: < 14 mL/min/kg; pIC50 [12]: < 5.00; CLH [13]: 14.3 mL/min/g; CLH [14]: 68 mL/min/kg; pIC50 [15]: 6.10; clearance [16]: < 0.4 mL/min/g; CLH [17]: < 7 mL/min/kg; chromatographic logD [18]: 5.05; solubility [19]: 141 µg/mL (≈ 297 µM) |
| Cc1csc([C@H](CC(=O)O)C(=O)N2CC[C@@H](CCc3ccc4c(n3)NCCC4)C2)c1 | 6.20 | 8.50 | 200 | – |

| SMILES | pIC50 [1] | pIC50 [2] | Ratio IC50 [3] | other results |
| --- | --- | --- | --- | --- |
| O=C(O)C[C@H](C(=O)N1CC[C@@H](CCc2ccc3c(n2)NCCC3)C1)c1cccc(Br)c1 | 6.10 | 8.40 | 200 | – |
| O=C(O)C[C@H](C(=O)N1CC[C@@H](CCc2ccc3c(n2)NCCC3)C1)c1cccc(C2CCCC2)c1 | 5.60 | – | 200 | – |
| O=C(O)C[C@H](C(=O)N1CC[C@@H](CCc2ccc3c(n2)NCCC3)C1)c1cccc(C2=CCCC2)c1 | 5.90 | 8.10 | 160 | – |
| O=C(O)C[C@H](C(=O)N1CC[C@@H](CCc2ccc3c(n2)NCCC3)C1)c1ccsc1 | 6.30 | 8.40 | 125 | – |
| O=C(O)C[C@H](C(=O)N1CC(CCc2ccc3c(n2)NCCC3)C1)c1ccccc1 | 5.50 | 7.60 | 125 | – |
| O=C(O)C[C@H](C(=O)N1CC[C@@H](CCc2ccc3c(n2)NCCC3)C1)c1cc(Br)cs1 | 6.50 | 8.50 | 100 | – |
| O=C(O)C[C@H](C(=O)N1CC[C@@H](CCc2ccc3c(n2)NCCC3)C1)c1cccc(C2CC2)c1 | 5.20 | 8.10 | 800 | pIC50 [12]: < 5.00; pIC50 [15]: 6.50 |
| O=C(O)C[C@H](C(=O)N1CC(CCCc2ccc3c(n2)NCCC3)C1)c1ccccc1 | 6.10 | 8.10 | 100 | – |
| O=C(O)C[C@H](C(=O)N1CC[C@@H](CCc2ccc3c(n2)NCCC3)C1)c1ccc(Br)s1 | 6.70 | 8.00 | 20 | – |
| O=C(O)C[C@H](C(=O)N1CC[C@@H](CCc2ccc3c(n2)NCCC3)C1)c1cccc(O)c1 | 6.80 | 8.40 | 40 | – |
| O=C(O)C[C@H](C(=O)N1CC[C@@H](CCc2ccc3c(n2)NCCC3)C1)c1cccc(N2CCNCC2)c1 | 5.80 | 7.80 | 100 | – |
| C=C(C)c1cccc([C@H](CC(=O)O)C(=O)N2CC[C@@H](CCc3ccc4c(n3)NCCC4)C2)c1 | 5.60 | 8.30 | 500 | pIC50 [12]: < 5.00; pIC50 [15]: 6.50 |
| O=C(O)C[C@H](C(=O)N1CC[C@@H](CCc2ccc3c(n2)NCCC3)C1)c1cccc(Cl)c1 | 6.00 | 8.60 | 400 | pIC50 [12]: 5.20; pIC50 [15]: 6.90 |
| O=C(O)C[C@H](C(=O)N1CCCC(CCc2ccc3c(n2)NCCC3)C1)c1ccccc1 (some centres not stated) | 5.20 | 6.30 | 13 | – |
| CN1CCN(c2cccc([C@H](CC(=O)O)C(=O)N3CC[C@@H](CCc4ccc5c(n4)NCCC5)C3)c2)CC1 | 5.90 | 8.00 | 125 | – |
| CNc1cccc(CCOc2ccc3c(ccn3CCC(=O)O)c2)n1 | 7.40 | 8.00 | 4 | – |
